One experiment has as its system CD8+ T cells. Kind of experiment: In vitro immunogenicity: T-cell priming with aAPCs loaded with peptide/MHC and anti-CD28, multimer staining. The class given is cell-based, human. The following applies: healthy donor CD8+ T cells, three stimulation cycles, multimer readout. An excerpt: In order to obtain information regarding the immunogenicity of the TUMAPs of the present invention, the inventors performed investigations using an in vitro T-cell priming assay based on repeated stimulations of CD8+ T cells with artificial antigen presenting cells (aAPCs) loaded with peptide/MHC complexes and anti-CD28 antibody.
In order to perform in vitro stimulations by artificial antigen presenting cells loaded with peptide-MHC complex (pMHC) and anti-CD28 antibody, the inventors first isolated CD8+ T cells from fresh HLA-A*02 leukapheresis products via positive selection using CD8 microbeads (Miltenyi Biotec, Bergisch-Gladbach, Germany) of healthy donors obtained from the University clinics Mannheim, Germany, after informed consent.
PBMCs and isolated CD8+ lymphocytes were incubated in T-cell medium (TCM) until use consisting of RPMI-Glutamax (Invitrogen, Karlsruhe, Germany) supplemented with 10% heat inactivated human AB serum (PAN-Biotech, Aidenbach, Germany), 100 U/ml Penicillin/100 μg/ml Streptomycin (Cambrex, Cologne, Germany), 1 mM sodium pyruvate (CC Pro, Oberdorla, Germany), 20 µg/ml Gentamycin (Cambrex). 2.5 ng/ml IL7 (PromoCell, Heidelberg, Germany) and 10 U/ml IL-2 (Novartis Pharma, Nurnberg, Germany) were also added to the TCM at this step.
Generation of pMHC/anti-CD28 coated beads, T-cell stimulations and readout was performed in a highly defined in vitro system using four different pMHC molecules per stimulation condition and 8 different pMHC molecules per readout condition.
The purified co-stimulatory mouse IgG2a anti human CD28 Ab 9.3 (Jung et al., 1987) was chemically biotinylated using Sulfo-N-hydroxysuccinimidobiotin as recommended by the manufacturer (Perbio, Bonn, Germany). Beads used were 5.6 μm diameter streptavidin coated polystyrene particles (Bangs Laboratories, Illinois, USA).
pMHC used for positive and negative control stimulations were A*0201/MLA-001 (peptide […] (SEQ ID NO. 303) from modified Melan-A/MART-1) and A*0201/DDX5-001 ([…] from DDX5, SEQ ID NO. 304), respectively.
800.000 beads/200 μl were coated in 96-well plates in the presence of 4×12.5 ng different biotin-pMHC, washed and 600 ng biotin anti-CD28 were added subsequently in a volume of 200 μl. Stimulations were initiated in 96-well plates by co-incubating 1×10^6 CD8+ T cells with 2×10^5 washed coated beads in 200 μI TCM supplemented with 5 ng/ml IL-12 (PromoCell) for 3 days at 37° C. Half of the medium was then exchanged by fresh TCM supplemented with 80 U/ml IL-2 and incubating was continued for 4 days at 37° C. This stimulation cycle was performed for a total of three times. For the pMHC multimer readout using 8 different pMHC molecules per condition, a two-dimensional combinatorial coding approach was used as previously described (Andersen et al., 2012) with minor modifications encompassing coupling to 5 different fluorochromes. Finally, multimeric analyses were performed by staining the cells with Live/dead near IR dye (Invitrogen, Karlsruhe, Germany), CD8-FITC antibody clone SK1 (BD, Heidelberg, Germany) and fluorescent pMHC multimers. For analysis, a BD LSRII SORP cytometer equipped with appropriate lasers and filters was used. Peptide specific cells were calculated as percentage of total CD8+ cells. Evaluation of multimeric analysis was done using the FlowJo software (Tree Star, Oreg., USA). In vitro priming of specific multimer+CD8+ lymphocytes was detected by comparing to negative control stimulations.
“297 (PFLQASPHF; listed as Homo sapiens) [compound 297]”: the “Wells (in vitro immunogenicity)” value was “++ (20%-49% = ++)”.

As for “300 (AYVLRLETL; listed as Homo sapiens) [compound 300]”, the “Wells (in vitro immunogenicity)” value was “+ (<20% = +)”.

Turning to “296 (TYVDSSHTI; listed as Homo sapiens) [compound 296]”, the “Wells (in vitro immunogenicity)” value was “+ (<20% = +)”.

Turning to “292 (GMMTAILGV; listed as Homo sapiens) [compound 292]”, the “Wells (in vitro immunogenicity)” value was “+ (<20% = +)”.

As for “301 (AYKPGALTF; listed as Homo sapiens) [compound 301]”, the “Wells (in vitro immunogenicity)” value is “+ (<20% = +)”.

In the case of “290 (KIVDFSYSV; listed as Homo sapiens) [compound 290]”, the “Wells (in vitro immunogenicity)” value is recorded as “++ (20%-49% = ++)”.

Still in this experiment, the particulars now being: in vitro immunogenicity of HLA class I peptides; peptide-specific multimer staining after aAPC priming of CD8+ T cells.
Regarding “207 (AYVVFVSTL; listed as Homo sapiens) [compound 207]”, the “Wells positive [%]” value is reported as “+ (<20% = +)”.

As to “269 (YFIDSTNLKTHF; listed as Homo sapiens) [compound 269]”, the “Wells positive [%]” value is recorded as “+ (<20% = +)”.

For the substance “141 (FLDKVLVAA; listed as Homo sapiens) [compound 141]”, the “Wells positive [%]” value was “+ (<20% = +)”.

With “26 (ALQEELTEL; listed as Homo sapiens) [compound 26]”, the “Wells positive [%]” value is “+ (<20% = +)”.

Turning to “285 (HYPPVQVLF; listed as Homo sapiens) [compound 285]”, the “Wells positive [%]” value is “+ (<20% = +)”.

“29 (YLLDPSITL; listed as Homo sapiens) [compound 29]”: the “Wells positive [%]” value is “+ (<20% = +)”.

Take “196 (LYIDRPLPYL; listed as Homo sapiens) [compound 196]”: the “Wells positive [%]” value was “++++ (>=70% = ++++)”.

For “90 (FLQDLEQRL; listed as Homo sapiens) [compound 90]”, the “Wells positive [%]” value is “+ (<20% = +)”.

The subject of another experiment is HLA-A*24. As to the kind of experiment: MHC binding assay (UV-ligand exchange, beta2m ELISA), HLA-A*24. On the set-up: species or system human. The following applies: peptide exchange yield, binding to HLA-A*24, UV-ligand exchange, β2m ELISA. An excerpt: Candidate peptides for T cell based therapies according to the present invention were further tested for their MHC binding capacity (affinity). The individual peptide-MHC complexes were produced by UV-ligand exchange, where a UV-sensitive peptide is cleaved upon UV-irradiation, and exchanged with the peptide of interest as analyzed. Only peptide candidates that can effectively bind and stabilize the peptide-receptive MHC molecules prevent dissociation of the MHC complexes. To determine the yield of the exchange reaction, an ELISA was performed based on the detection of the light chain (β2m) of stabilized MHC complexes. The assay was performed as generally described in Rodenko et al. (Rodenko et al., 2006).
96 well MAXISorp plates (NUNC) were coated over night with 2 ug/ml streptavidin in PBS at room temperature, washed 4× and blocked for 1 h at 37° C. in 2% BSA containing blocking buffer. Refolded HLA-A*02:01/MLA-001 monomers served as standards, covering the range of 15-500 ng/ml. Peptide-MHC monomers of the UV-exchange reaction were diluted 100 fold in blocking buffer. Samples were incubated for 1h at 37° C., washed four times, incubated with 2 ug/ml HRP conjugated anti-62m for 1 h at 37° C., washed again and detected with TMB solution that is stopped with […]. Absorption was measured at 450 nm. Candidate peptides that show a high exchange yield (preferably higher than 50%, most preferred higher than 75%) are generally preferred for a generation and production of antibodies or fragments thereof, and/or T cell receptors or fragments thereof, as they show sufficient avidity to the MHC molecules and prevent dissociation of the MHC complexes.
For the substance “216 (QYSSVFKSL; listed as Homo sapiens) [compound 216]”, the Peptide exchange result was “++++ (>=75% = ++++)”.

“282 (KFVDSTFYL; listed as Homo sapiens) [compound 282]”: the Peptide exchange result is on record as “++++ (>=75% = ++++)”.

For “289 (KYPVEWAKF; listed as Homo sapiens) [compound 289]”, the Peptide exchange result is listed as “++++ (>=75% = ++++)”.

As to “267 (KYMVYPQTF; listed as Homo sapiens) [compound 267]”, the Peptide exchange result is given as “++++ (>=75% = ++++)”.

On to “227 (IFLDYEAGTLSF; listed as Homo sapiens) [compound 227]”, for which the Peptide exchange entry is on record as “++++ (>=75% = ++++)”.

In the case of “276 (VYGFQWRHF; listed as Homo sapiens) [compound 276]”, the Peptide exchange entry is given as “++++ (>=75% = ++++)”.

On to “210 (IYTMIYRNL; listed as Homo sapiens) [compound 210]”, for which the Peptide exchange entry is recorded as “++++ (>=75% = ++++)”.

“175 (YYEVHKELF; listed as Homo sapiens) [compound 175]”: the Peptide exchange result was “++++ (>=75% = ++++)”.

Take “187 (TYLRDQHFL; listed as Homo sapiens) [compound 187]”: the Peptide exchange result was “++++ (>=75% = ++++)”.

“181 (LYLDIINLF; listed as Homo sapiens) [compound 181]”: the Peptide exchange result is “++++ (>=75% = ++++)”.

On to “160 (VYTLDIPVL; listed as Homo sapiens) [compound 160]”, for which the Peptide exchange entry is recorded as “++++ (>=75% = ++++)”.

Regarding “192 (SYALLTYMI; listed as Homo sapiens) [compound 192]”, the Peptide exchange result is given as “++++ (>=75% = ++++)”.

On to “184 (VFQNFPLLF; listed as Homo sapiens) [compound 184]”, for which the Peptide exchange entry was “++++ (>=75% = ++++)”.

As to “193 (RFHPTPLLL; listed as Homo sapiens) [compound 193]”, the Peptide exchange entry is reported as “++++ (>=75% = ++++)”.

As for “177 (VYPWLGALL; listed as Homo sapiens) [compound 177]”, the Peptide exchange entry was “++++ (>=75% = ++++)”.

In the case of “280 (RYPDNLKHLYL; listed as Homo sapiens) [compound 280]”, the Peptide exchange result is given as “++++ (>=75% = ++++)”.

Regarding “202 (VYWDSAGAAHF; listed as Homo sapiens) [compound 202]”, the Peptide exchange result is reported as “++++ (>=75% = ++++)”.

With “217 (FFPPTRQMGLLF; listed as Homo sapiens) [compound 217]”, the Peptide exchange result is reported as “++++ (>=75% = ++++)”.

Regarding “277 (VYQGHTALL; listed as Homo sapiens) [compound 277]”, the Peptide exchange entry is reported as “++++ (>=75% = ++++)”.

As to “274 (AYLHSHALI; listed as Homo sapiens) [compound 274]”, the Peptide exchange result is reported as “++++ (>=75% = ++++)”.

With “168 (KYQDILETI; listed as Homo sapiens) [compound 168]”, the Peptide exchange result is reported as “++++ (>=75% = ++++)”.

For “194 (EFGSLHLEFL; listed as Homo sapiens) [compound 194]”, the Peptide exchange result was “+ (<20% = +)”.

Consider “161 (IYLVSIPEL; listed as Homo sapiens) [compound 161]”, for which the Peptide exchange entry was “++++ (>=75% = ++++)”.

Take “166 (YYVESGKLF; listed as Homo sapiens) [compound 166]”: the Peptide exchange result is listed as “++++ (>=75% = ++++)”.

Take “173 (IYSWILDHF; listed as Homo sapiens) [compound 173]”: the Peptide exchange result is on record as “++++ (>=75% = ++++)”.

Consider “172 (TYTTVPRVAF; listed as Homo sapiens) [compound 172]”, for which the Peptide exchange result is “++++ (>=75% = ++++)”.

In the case of “195 (TYSVSFPMF; listed as Homo sapiens) [compound 195]”, the Peptide exchange result is “++++ (>=75% = ++++)”.

For the substance “278 (RYISDQLFTNF; listed as Homo sapiens) [compound 278]”, the Peptide exchange entry is reported as “++++ (>=75% = ++++)”.

“211 (YYLEVGKTLI; listed as Homo sapiens) [compound 211]”: the Peptide exchange entry was “++++ (>=75% = ++++)”.

“179 (MYDSYWRQF; listed as Homo sapiens) [compound 179]”: the Peptide exchange result was “++++ (>=75% = ++++)”.

Turning to “271 (LYHDIFSRL; listed as Homo sapiens) [compound 271]”, the Peptide exchange result was “++++ (>=75% = ++++)”.

As to “272 (QYLQDAYSF; listed as Homo sapiens) [compound 272]”, the Peptide exchange result is reported as “++++ (>=75% = ++++)”.

“186 (IFPQFLYQF; listed as Homo sapiens) [compound 186]”: the Peptide exchange result is given as “++++ (>=75% = ++++)”.

In the case of “228 (KYTSWYVAL; listed as Homo sapiens) [compound 228]”, the Peptide exchange result was “++++ (>=75% = ++++)”.
